This note sets out measurements from US5348956A, “Substituted cyclopropylamino-1,3,5-triazines” (UCB S.A., priority 1991, dated 1994).

Data set [1] has as its system plantar edema induced by immune complexes. Description: "reverse passive Arthus" (RPA) test, anti-inflammatory and anti-edema activity. The format is in vivo, Sprague-Dawley rat. Conditions: Rattus norvegicus, intravenous. The protocol:
The reaction between a soluble antigen and antibodies in the organism may lead to an acute inflammatory reaction accompanied by release of histamine, modification of vascular permeability and formation of a localized edema. […] To this end, the Arthus reaction is induced by subplantar administration of 0.1 ml of heterologous antivalbumin reaginic serum into the right hind paw and by simultaneous intravenous injection of 1 ml/kg ovalbumin (25 mg/ml). The compound to be tested is administered intravenously 30 seconds before induction of the Arthus reaction, in a least 3 different doses. A group of 6 rats is used per dose of compound to be tested. The volume of the paw is measured by plethysmometry before the Arthus reaction and 3 to 5 hours after induction of the Arthus reaction, both in the control animals and in the treated animals. The effect of a compound on the reduction in the edema for each dose and at each measurement time (3 hours and 5 hours) is expressed in % of the edema observed in the control animals. The doses of the compounds (ID30 in μmole/kg) which inhibit by 30%, on average over all the animals, the volume of the edema observed in the control animals are given in Table VII below.

The test system of another data set is serotonergic activity. Description: "wet dog shake" (WDS) behavior, serotonergic activity. Type of data set: in vivo, male Sprague-Dawley rats. Conditions: counted over 30 minutes. On the procedure: A decrease in serotonergic activity has been correlated with the occurrence of affective disorders, such as depression and anxiety. […] The test is carried out in the morning on male Sprague-Dawley rats (±180 g), divided the previous day into groups of 8 animals in residence cages. The cage used for the tests is a transparent enclosure of 12×24×30 cm in height, the floor of which is covered with a layer of sand. The compounds to be tested, dissolved either in physiological salt solution or in a citrate buffer of pH 5, are administered intraperitoneally in a different dose for each group treated. The control groups receive an intraperitoneal injection of the same vehicle (either physiological salt solution or citrate buffer). […] The mean values of the results are calculated and analyzed statistically by the Mann-Whitney method. The mean values of the number of shakes obtained for the compounds according to the invention administered intraperitoneally at the doses indicated (in mg/kg) are given in Table V below.

In data set [2] the test system is bronchospasm induced by histamine. In words: bronchospasmolytic activity (Konzett and Roessler), bronchospasm induced by histamine. Particulars: Cavia porcellus; intravenous; histamine-induced bronchospasm; read-out: Doses (ID50), Histamine. The format is in vivo, Dunkin-Hartley guinea-pig. The protocol: (§1) This activity was measured in the Dunkin-Hartley guinea-pig by the method of H. KONZETT and […] (Naunyn Schmiedebergs Arch. exp. Path. […] The anesthetized (urethane) and curarized (gallamine) guinea-pig is placed under assisted respiration. The endotracheal pressure is recorded. […] The compound to be tested is also administered intravenously two minutes before the administration of the spasmogen and then in 3 to 4 cumulative doses in increasing amounts at intervals of 15 minutes. Six animals per compound to be tested and per spasmogen are used.

The subject of data set [3] is anaphylactic release of histamine, guinea-pig lung sections. In words: potentiation of the inhibition of anaphylactic histamine release by isoprenaline. The format is cell-based, Dunkin-Hartley guinea-pigs. Conditions: with isoprenaline 10^-7 mole per liter. The protocol:
(§2) Dunkin-Hartley guinea-pigs which are first passively sensitized by an intravenous injection of 1 ml of isologous antiovalbumin serum are used. Twenty-four hours after the injection, the lungs are then perfused with a Tyrode buffer to evacuate the blood, and then removed and cut into sections of 1 mm. These sections are divided up into test tubes (3 sections per tube) to give 10 experimental groups of lung sections per guinea-pig. A "positive" control group of lung sections is stimulated by addition of an ovalbumin solution (0.1 mg/ml) to induce the anaphylactic release of histamine and serves to determine the maximum amount of histamine (100%) which can be released. A "negative" control group which is not stimulated by ovalbumin serves to determine the naturally released amount of histamine (spontaneous release). In three other groups, the lung sections are incubated at 37° C. for 30 minutes in the ovalbumin solution in the presence of three different doses of the compound to be tested (one dose per group). […] At this dose, isoprenaline inhibits the release of histamine by 30 to 40%, which is verified on a control group treated only with isoprenaline alone at this dose. In addition, a supplementary control group which is not stimulated by ovalbumin is used to detect a possible spontaneous release of histamine by the highest dose of the compound tested. In each group, the histamine released in the incubation medium is measured by spectrofluorometry (D. P. EVANS et al., Life Sci., 12, (1973), 327-336).

Another data set in a line: toxicity, Irwin's test. Particulars: i.p.; death of two animals out of three within 48 hours. Type of data set: in vivo. The protocol:
Progressive doses of the compound to be tested are administered intraperitoneally to groups of three mice until the lethal dose is reached (dose which causes the death of two animals out of three within 48 hours).

Data set [4] relates to anaphylactic release of histamine, guinea-pig lung sections. Description: inhibition of the anaphylactic release of histamine (proper effect). Type of data set: cell-based, Dunkin-Hartley guinea-pigs. Conditions: Cavia porcellus, in vitro, read-out: Minimum inhibitory dose (MID). On the procedure:
as §2

Data set [5] relates to longitudinal muscles of the ileum contracted by histamine. Description: potentiation of the myorelaxing effect of isoprenaline on the ileum. The format is cell-based, Dunkin-Hartley guinea-pigs. Particulars: with isoprenaline 10^-7 mole/l; histamine 3.2 μmoles/l. On the procedure:
(cf. R. A. TURNER, "Screening Methods in Pharmacology", Ed. Acad. Press, San Diego, 1965, chapter IV, pages 43-47). […] Inhibition cycle: When the successive contractions induced by the histamine injections have become reproducible, the compound to be tested is injected immediately after the second wash. The contraction induced by the following injection of histamine is measured and compared with the average of the three preceding contractions caused by the repeated injections of histamine (control contractions). From the result obtained, the percentage inhibition of the contraction is calculated. Several cycles of histamine injection are then performed again, until the contractions of the muscle become reproducible again; the muscle is then ready for testing of another compound. The potentiating effect of a compound is measured in the course of a so-called "potentiation" cycle, which comprises three successive inhibition cycles. […] In the course of the second inhibition cycle, the percentage inhibition of the contraction obtained with the compound to be tested, injected alone at a given dose, is determined. In the third inhibition cycle, isoprenaline and the compound to be tested are injected simultaneously, and the percentage inhibition of the contraction is calculated for the dose used of the compound tested. The same experiments are repeated for each of the doses of the compounds tested.

The test system of data set [6] is bronchospasm induced by serotonin. Description: bronchospasmolytic activity (Konzett and Roessler), bronchospasm induced by serotonin. The format is in vivo, Dunkin-Hartley guinea-pig. Conditions: Cavia porcellus; intravenous; serotonin-induced bronchospasm; read-out: Doses (ID50), Serotonin. The protocol:
as §1

Data set [7] concerns bronchospasm induced by acetylcholine. In words: bronchospasmolytic activity (Konzett and Roessler), bronchospasm induced by acetylcholine. Type of data set: in vivo, Dunkin-Hartley guinea-pig. Particulars: Cavia porcellus; intravenous; acetylcholine-induced bronchospasm; read-out: Doses (ID50), Acetylcholine. On the procedure: as §1
For another data set, the system named is PMN granulocytes. In words: inhibition of the stimulation of PMN granulocytes (chemiluminescence). Type of data set: cell-based, Rat. Conditions: Rattus norvegicus; 10^-6 mole/l; FMLP 3.2×10^-7 mole/liter; read-out: Residual chemiluminescence. The text has this:
Polymorphonuclear neutrophil granulocytes (PMN) are cells which are mobilized during inflammatory phenomena and which can be stimulated by various compounds, such as, for example, formylmethionyl-leucylphenylalanine (FMLP) or prostaglandins E (PGE1). The PMN granulocytes respond to these extracellular stimuli with an activation of the oxygen metabolism with release of toxic oxygenated metabolites. An excessive response of the PMN granulocytes may be the cause of a painful inflammation and is also accompanied by a reduction in the level of cyclic adenosine monophosphate (cAMP) in these granulocytes. Consequently, compounds which inhibit the respiratory burst of PMN granulocytes or which increase the level of cAMP can be regarded as very important in the treatment of arthritis and asthma. […] Rat PMN granulocytes (5×10^6 /ml) are preincubated in a phosphate buffer ([…], pH 7.4), containing luminol at a concentration of 10^-5 mole per liter, for 15 minutes at 37° C. and then for 5 minutes in the presence of the compound to be treated at a concentration of 10^-6 mole/liter. […] The luminescence which results from the stimulation is measured by means of an LKB 1251 luminometer according to the method of […] and […] (Infection and Immunology, 37, (1982), 34-39). An experimental cycle lasts 38 seconds. The reaction is repeated 9 times for each compound to be tested and the average of the results obtained is calculated.

In data set [8] the test system is amnesia induced by scopolamine. In words: multiple-trial passive avoidance: mnemic retention, amnesia induced by scopolamine. Conditions: […] i.p. + 0.5 mg scopolamine.
The mark [9] stands for this setting: 3 hours after induction of the Arthus reaction, read-out: Dose (ID30), 3 hours.
Setting [10] is: 5 hours after induction of the Arthus reaction, read-out: Dose (ID30), 5 hours.

Where two headings read alike, the source gives them in different places.

As for `O=S1(=O)CCN(c2nc(NC3CC3)nc(C3CC3)n2)CC1` [Compound 20, 2-Cyclopropyl-4-cyclopropylamino-6-thiomorpholino-1,3,5-triazine S,S-dioxide], the ED30 in data set [1] (setting [9]) was 1 µmol/kg; in data set [1] (setting [10]), 0.5 µmol/kg. In addition, the “Average number of shakes” value in the data set on serotonergic activity (0.99 mg/kg i.p.) came out at 13.6 ± 2.3 shakes. Besides, the figures for the ED50 in data set [2], in data set [6] and in data set [7] were 0.03 µmol/kg, 0.4 µmol/kg and 0.1 µmol/kg, respectively. For the same compound, the “Minimum potentiating dose (MPD)” value in data set [3] is 0.32 µmol/L; in data set [5] it was 0.1 µmol/L. Also, the Lethal dose in the data set “toxicity, Irwin's test” came to 185 mg/kg. Besides, the minimal effective concentration in data set [4] turned out to be 1 µM.
As to `O=C1CN(c2nc(NC3CC3)nc(C3CC3)n2)C1` [Compound 17], the ED30 in [1] (setting [9]) and in [1] (setting [10]) was 1 µmol/kg each time. For the same compound, the “Average number of shakes” value in the data set with serotonergic activity (2.8 mg/kg i.p.) worked out at 10.5 ± 2.9 shakes. Further, the results for the ED50 in data set [2], in [6] and in data set [7] were 0.1 µmol/kg, 0.2 µmol/kg and 0.2 µmol/kg, respectively. Besides, the “Minimum potentiating dose (MPD)” value in data set [3] was determined as 1.0 µmol/L; in data set [5], 0.32 µmol/L. In addition, the Lethal dose in “toxicity, Irwin's test” is 281.5 mg/kg. In addition, the minimal effective concentration in [4] is 3.2 µM.
For the compound `C1CCC(c2nc(NC3CC3)nc(N3CCOCC3)n2)C1` [Compound 8], the ED30 in [1] (setting [9]) and in [1] (setting [10]) was 4 µmol/kg each time. In addition, the ED50 in [2] was 0.1 µmol/kg; in [6] it was 0.3 µmol/kg; in data set [7] it was 0.2 µmol/kg. In addition, the “Minimum potentiating dose (MPD)” value in data set [3] worked out at 10.0 µmol/L. The compound also displayed a Lethal dose in the data set “toxicity, Irwin's test” of 326 mg/kg. Also, the minimal effective concentration in data set [4] was 1 µM.
Regarding `[O-][S+]1CCN(c2nc(NC3CC3)nc(C3CC3)n2)CC1` [Compound 19, 2-Cyclopropyl-4-cyclopropylamino-6-thiomorpholino-1,3,5-triazine S-oxide], the ED30 in data set [1] (setting [9]) and in data set [1] (setting [10]) was 0.02 µmol/kg throughout. Further, the “Average number of shakes” value with serotonergic activity (0.94 mg/kg i.p.) is 16.0 ± 4.7 shakes. The ED50 in data set [2] came out at 0.02 µmol/kg; in [6], 0.04 µmol/kg; in [7], 0.1 µmol/kg. Besides, the “Minimum potentiating dose (MPD)” value in data set [3] was determined as 0.1 µmol/L; in data set [5], 0.32 µmol/L. The compound further showed a Lethal dose in the data set “toxicity, Irwin's test” of 175.6 mg/kg. Further, the minimal effective concentration in data set [4] was 1 µM.
On to `CCc1nc(NC2CC2)nc(N2CC3CCC(C2)O3)n1` [Compound 10], for which the activity at 1 µM with PMN granulocytes came to 56%. Further, the “Period of remaining on the mat, group 4” value was 20.3 s in data set [8] (4 hours), 78.9 s in data set [8] (24 hours), 142.0 s in data set [8] (28 hours) and 5.7 s in data set [8] (time 0). For the same compound, the ED50 in [2] turned out to be 0.1 µmol/kg; in data set [6], 0.3 µmol/kg; in data set [7], 0.5 µmol/kg. The “Minimum potentiating dose (MPD)” value in data set [3] was 0.32 µmol/L; in data set [5], 1.0 µmol/L. The Lethal dose in the data set “toxicity, Irwin's test” was 311.8 mg/kg. Moreover, the minimal effective concentration in [4] turned out to be 3.2 µM.
On to `C1CN(c2nc(NC3CC3)nc(C3CC3)n2)CCS1` [Compound 18, 2-Cyclopropyl-4-cyclopropylamino-6-thiomorpholino-1,3,5-triazine], for which the ED30 in [1] (setting [9]) and in [1] (setting [10]) was 1 µmol/kg throughout. Also, the “Average number of shakes” value with serotonergic activity (0.88 mg/kg i.p.) came to 10.6 ± 3.0 shakes. Besides, the ED50 in [2] was 0.003 µmol/kg. Also, the results for the “Minimum potentiating dose (MPD)” value in data set [3] and in [5] were 1.0 µmol/L and 0.1 µmol/L, respectively. This compound came in with a Lethal dose in the data set “toxicity, Irwin's test” of 277 mg/kg. Also, the minimal effective concentration in data set [4] came out at 0.1 µM.
